The values below come from patent US20260297081A1, “COMPOUNDS AND METHODS OF TREATING CANCERS” (Cullgen Inc., priority 2023, published 2026).

The term IC50 denotes the concentration that gives 50% inhibition.

Bounds are passed on as bounds.

In one experiment the target is CDK4 (Homo sapiens, UniProt P11802+Q16531). As to the kind of experiment: HiBiT detection of HiBiT-tagged CDK4 protein level in MCF7 cells, 16 hours (Table 8). The class given is cell-based. More on the design: expressed in transfected cells; host or cells: MCF7. Particulars: MCF7 cells stably expressing HiBiT tagged target proteins; for activity at 0.01 µM: 10 nM, read-out: % CDK4 Relative Level (10 nM); for activity at 0.1 µM: 100 nM, read-out: % CDK4 Relative Level (100 nM). The procedure: HiBiT detection system quantitatively measures total amounts of HiBiT-tagged proteins using a luminescent based method. MCF7 cells stably expressing HiBiT tagged target proteins were treated with heterobifunctional compounds at indicated concentrations for 16 hours, then lysed with Nano-Glo HiBiT Lytic detection reagents.

A further experiment has as its system MCF7 cells. As to the kind of experiment: Anti-proliferation (viability) of MCF7 cells (Table 7, FIG. 2B). It is filed as cell-based. The settings on record: Homo sapiens, MCF7, MCF7 cells, 3-6 days, 10-point serial dilution; read-out: GI IC50 in MCF-7.

Sequence of CDK4 (P11802 whole entry): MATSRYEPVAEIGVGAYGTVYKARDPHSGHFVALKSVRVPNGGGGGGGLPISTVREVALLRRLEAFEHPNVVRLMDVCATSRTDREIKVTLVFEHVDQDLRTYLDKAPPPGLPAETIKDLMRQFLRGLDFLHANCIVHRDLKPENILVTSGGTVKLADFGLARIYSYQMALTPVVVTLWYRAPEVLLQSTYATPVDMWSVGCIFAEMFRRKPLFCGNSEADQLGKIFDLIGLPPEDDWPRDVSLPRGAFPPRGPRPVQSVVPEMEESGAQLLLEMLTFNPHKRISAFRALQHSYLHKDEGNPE
Sequence of CDK4 (P24385 whole entry partner): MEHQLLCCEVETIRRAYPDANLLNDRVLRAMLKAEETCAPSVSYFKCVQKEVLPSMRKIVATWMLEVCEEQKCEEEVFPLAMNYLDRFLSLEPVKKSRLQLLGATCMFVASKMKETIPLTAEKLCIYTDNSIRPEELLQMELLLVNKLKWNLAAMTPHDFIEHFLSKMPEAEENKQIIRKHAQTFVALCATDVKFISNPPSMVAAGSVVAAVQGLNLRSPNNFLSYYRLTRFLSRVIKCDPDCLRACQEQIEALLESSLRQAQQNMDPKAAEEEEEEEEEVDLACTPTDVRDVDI
Sequence of CDK4 (Q16531 2-1140 limits assumed): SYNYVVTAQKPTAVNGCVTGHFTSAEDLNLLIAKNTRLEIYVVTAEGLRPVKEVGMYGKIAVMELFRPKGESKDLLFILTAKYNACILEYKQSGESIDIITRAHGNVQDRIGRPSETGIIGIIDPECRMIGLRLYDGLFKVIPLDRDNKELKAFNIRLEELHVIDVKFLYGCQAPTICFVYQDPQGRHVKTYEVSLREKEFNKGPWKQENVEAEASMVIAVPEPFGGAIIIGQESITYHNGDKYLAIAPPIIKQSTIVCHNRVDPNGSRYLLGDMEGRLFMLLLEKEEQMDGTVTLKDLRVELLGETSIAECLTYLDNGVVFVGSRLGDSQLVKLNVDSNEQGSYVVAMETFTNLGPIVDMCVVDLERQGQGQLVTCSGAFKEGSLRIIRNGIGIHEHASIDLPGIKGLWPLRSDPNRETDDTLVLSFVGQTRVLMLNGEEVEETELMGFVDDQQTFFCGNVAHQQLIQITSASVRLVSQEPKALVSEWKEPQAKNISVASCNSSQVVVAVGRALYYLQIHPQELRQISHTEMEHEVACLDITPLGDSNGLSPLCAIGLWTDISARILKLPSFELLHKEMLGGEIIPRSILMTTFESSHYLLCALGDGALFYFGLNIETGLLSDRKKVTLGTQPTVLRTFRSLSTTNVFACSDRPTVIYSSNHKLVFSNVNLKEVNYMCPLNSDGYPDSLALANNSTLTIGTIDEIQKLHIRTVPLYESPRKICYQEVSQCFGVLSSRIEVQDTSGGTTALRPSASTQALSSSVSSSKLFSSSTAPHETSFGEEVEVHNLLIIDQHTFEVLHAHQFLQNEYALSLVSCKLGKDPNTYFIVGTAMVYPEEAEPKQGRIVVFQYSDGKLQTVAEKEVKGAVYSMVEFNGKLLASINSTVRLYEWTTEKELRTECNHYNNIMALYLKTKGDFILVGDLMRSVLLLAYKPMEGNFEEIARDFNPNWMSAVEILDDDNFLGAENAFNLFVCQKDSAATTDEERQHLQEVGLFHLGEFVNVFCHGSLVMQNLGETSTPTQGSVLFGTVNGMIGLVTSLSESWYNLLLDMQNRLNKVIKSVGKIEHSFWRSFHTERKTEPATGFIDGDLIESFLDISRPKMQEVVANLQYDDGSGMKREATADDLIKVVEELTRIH

In the case of `CC(=O)c1c(C)c2cnc(Nc3ccc(CN4CCC(N(C)C(=O)C5CC6(CC(Nc7nc(NC(C)C)ccc7C(=O)Nc7ccc(N(C)C)nn7)C6)C5)CC4)cn3)nc2n(C2CCCC2)c1=O` (stereo not drawn) [CPD-595, 2-((6-((1-((6-((6-acetyl-8-cyclopentyl-5-methyl-7-oxo-7,8-dihydropyrido[2,3-d]pyrimidin-2-yl)amino)pyridin-3-yl)methyl)piperidin-4-yl)(methyl)carbamoyl)spiro[3.3]heptan-2-yl)amino)-N-(6-(dimethylamino)pyridazin-3-yl)-6-(isopropylamino)nicotinamide], at CDK4, the activity at 0.01 µM was over 85% and the activity at 0.1 µM fell in the range of 55 to 85%. The IC50 in the experiment on MCF7 cells is under 50 nM.
The corresponding values for `CNc1ccc(C(=O)Nc2ccc(N(C)C)nn2)c(NCCCCCCNC(=O)CN2CCN(c3ccc(Nc4ncc5cc6n(c5n4)C4(CCCCC4)CNC6=O)nc3)CC2)n1` [CPD-644, N-(6-(dimethylamino)pyridazin-3-yl)-6-(methylamino)-2-((6-(2-(4-(6-((6′-oxo-7′,8′-dihydro-6′H-spiro[cyclohexane-1,9′-pyrazino[1′,2′:1,5]pyrrolo[2,3-d]pyrimidin]-2′-yl)amino)pyridin-3-yl)piperazin-1-yl)acetamido)hexyl)amino)nicotinamide] are over 85%, over 85% and over 100 nM.
Regarding `CC(=O)c1c(C)c2cnc(Nc3ccc(N4CCC5(CC4)CC5C(=O)N4CCC(Nc5nc(NC(C)C)ccc5C(=O)Nc5ccc(N(C)C)nn5)CC4)cn3)nc2n(C2CCCC2)c1=O` (stereo not drawn) [CPD-407, 2-((1-(6-(6-((6-acetyl-8-cyclopentyl-5-methyl-7-oxo-7,8-dihydropyrido[2,3-d]pyrimidin-2-yl)amino)pyridin-3-yl)-6-azaspiro[2.5]octane-1-carbonyl)piperidin-4-yl)amino)-N-(6-(dimethylamino)pyridazin-3-yl)-6-(isopropylamino)nicotinamide], on CDK4, the activity at 0.01 µM was in the range of 55 to 85% and the activity at 0.1 µM fell in the range of 55 to 85%. Also, the IC50 in the experiment on MCF7 cells is under 50 nM.
Turning to `CNc1ccc(C(=O)Nc2ccc(N(C)C)nn2)c(NCCCCCCC(=O)N2CCN(c3ccc(Nc4ncc5cc6n(c5n4)C4(CCCCC4)CNC6=O)nc3)CC2)n1` [CPD-636, N-(6-(dimethylamino)pyridazin-3-yl)-6-(methylamino)-2-((7-oxo-7-(4-(6-((6′-oxo-7′,8′-dihydro-6′H-spiro[cyclohexane-1,9′-pyrazino[1′,2′:1,5]pyrrolo[2,3-d]pyrimidin]-2′-yl)amino)pyridin-3-yl)piperazin-1-yl)heptyl)amino)nicotinamide], at CDK4, the activity at 0.01 µM was 55 to 85% and the activity at 0.1 µM fell in the range of 55 to 85%. Moreover, the IC50 with MCF7 cells is over 100 nM.
Turning to `CNc1ccc(C(=O)Nc2ccc(N(C)C)nn2)c(NCCCCC(=O)N2CCN(c3ccc(Nc4ncc5cc6n(c5n4)C4(CCCCC4)CNC6=O)nc3)CC2)n1` [CPD-634, N-(6-(dimethylamino)pyridazin-3-yl)-6-(methylamino)-2-((5-oxo-5-(4-(6-((6′-oxo-7′,8′-dihydro-6′H-spiro[cyclohexane-1,9′-pyrazino[1′,2′:1,5]pyrrolo[2,3-d]pyrimidin]-2′-yl)amino)pyridin-3-yl)piperazin-1-yl)pentyl)amino)nicotinamide], at CDK4, the activity at 0.01 µM was 55 to 85% and the activity at 0.1 µM is 55 to 85%. Further, in the experiment with MCF7 cells, the IC50 was over 100 nM.
For the molecule `CC(=O)c1c(C)c2cnc(Nc3ccc(N4CCN(C5CCN(C(=O)C67CC(Nc8nc(NC(C)C)ccc8C(=O)Nc8cc(C)on8)(C6)C7)C5)CC4)cn3)nc2n(C2CCCC2)c1=O` (stereo not drawn) [CPD-591, 2-((3-(3-(4-(6-((6-acetyl-8-cyclopentyl-5-methyl-7-oxo-7,8-dihydropyrido[2,3-d]pyrimidin-2-yl)amino)pyridin-3-yl)piperazin-1-yl)pyrrolidine-1-carbonyl)bicyclo[1.1.1]pentan-1-yl)amino)-6-(isopropylamino)-N-(5-methylisoxazol-3-yl)nicotinamide], at CDK4, the activity at 0.01 µM was in the range of 55 to 85% and the activity at 0.1 µM is 55 to 85%. The concentration for half-maximal inhibition (IC50) with MCF7 cells was under 50 nM.
Take `CNc1ccc(C(=O)Nc2ccc(N(C)C)nn2)c(NCCCCCCNC(=O)CN2CCN(c3ccc(Nc4ncc5cc(C(=O)N(C)C)n(C6CCCC6)c5n4)nc3)CC2)n1` [CPD-628, 7-cyclopentyl-2-((5-(4-(2-((6-((3-((6-(dimethylamino)pyridazin-3-yl)carbamoyl)-6-(methylamino)pyridin-2-yl)amino)hexyl)amino)-2-oxoethyl)piperazin-1-yl)pyridin-2-yl)amino)-N,N-dimethyl-7H-pyrrolo[2,3-d]pyrimidine-6-carboxamide]: on CDK4, the activity at 0.01 µM lay in the range of 55 to 85% and the activity at 0.1 µM is 55 to 85%. The IC50 with MCF7 cells was over 100 nM.
Turning to `CC(=O)c1c(C)c2cnc(Nc3ccc(N4CCN(C5CCN(C(=O)C67CC(Nc8nc(NC(C)C)ccc8C(=O)Nc8cc(C)n(C)n8)(C6)C7)C5)CC4)cn3)nc2n(C2CCCC2)c1=O` (stereo not drawn) [CPD-587, 2-((3-(3-(4-(6-((6-acetyl-8-cyclopentyl-5-methyl-7-oxo-7,8-dihydropyrido[2,3-d]pyrimidin-2-yl)amino)pyridin-3-yl)piperazin-1-yl)pyrrolidine-1-carbonyl)bicyclo[1.1.1]pentan-1-yl)amino)-N-(1,5-dimethyl-1H-pyrazol-3-yl)-6-(isopropylamino)nicotinamide], at CDK4, the activity at 0.01 µM fell in the range of 55 to 85% and the activity at 0.1 µM was 55 to 85%. Moreover, the IC50 with MCF7 cells was under 50 nM.
Regarding `CNc1ccc(C(=O)Nc2ccc(N(C)C)nn2)c(NCCCC(=O)N2CCN(Cc3ccc(Nc4ncc(F)c(-c5cc(F)c6nc(C)n(C(C)C)c6c5)n4)nc3)CC2)n1` [CPD-601, N-(6-(dimethylamino)pyridazin-3-yl)-2-((4-(4-((6-((5-fluoro-4-(4-fluoro-1-isopropyl-2-methyl-1H-benzo[d]imidazol-6-yl)pyrimidin-2-yl)amino)pyridin-3-yl)methyl)piperazin-1-yl)-4-oxobutyl)amino)-6-(methylamino)nicotinamide], at CDK4, the activity at 0.01 µM lay in the range of 55 to 85% and the activity at 0.1 µM is 55 to 85%. Besides, the IC50 in the experiment with MCF7 cells is over 100 nM.
Take `CC(=O)c1c(C)c2cnc(Nc3ccc(N4CCN(CC(=O)NCC56CC(Nc7nc(NC(C)C)ccc7C(=O)Nc7ccc(N(C)C)nn7)(C5)C6)CC4)cn3)nc2n(C2CCCC2)c1=O` [CPD-429, 2-((3-((2-(4-(6-((6-acetyl-8-cyclopentyl-5-methyl-7-oxo-7,8-dihydropyrido[2,3-d]pyrimidin-2-yl)amino)pyridin-3-yl)piperazin-1-yl)acetamido)methyl)bicyclo[1.1.1]pentan-1-yl)amino)-N-(6-(dimethylamino)pyridazin-3-yl)-6-(isopropylamino)nicotinamide]: at CDK4, the activity at 0.01 µM was in the range of 55 to 85% and the activity at 0.1 µM fell in the range of 55 to 85%. Further, in the experiment on MCF7 cells, the IC50 is under 50 nM.
Regarding `CNc1ccc(C(=O)Nc2ccc(N(C)C)nn2)c(NCCCC(=O)N2CCN(c3ccc(Nc4ncc5cc(C(=O)N(C)C)n(C6CCCC6)c5n4)nc3)CC2)n1` [CPD-617, 7-cyclopentyl-2-((5-(4-(4-((3-((6-(dimethylamino)pyridazin-3-yl)carbamoyl)-6-(methylamino)pyridin-2-yl)amino)butanoyl)piperazin-1-yl)pyridin-2-yl)amino)-N,N-dimethyl-7H-pyrrolo[2,3-d]pyrimidine-6-carboxamide], on CDK4, the activity at 0.01 µM was over 85% and the activity at 0.1 µM is over 85%. In the experiment on MCF7 cells, the IC50 is over 100 nM.
